Reference: patent US10710996B2, “Pyrido-azaheterecydic compound and preparation method and use thereof” (SHANGHAI INSTITUTE OF MATERIA MEDICA, CHINESE ACADEMY OF …, priority 2015, dated 2020)

Molecular target: T1, c-Met kinase (Homo sapiens, UniProt P08581)
T1 construct: c-Met kinase domain recombinant protein diluted with 49 μL of the reaction buffer was added
Assay: Inhibitory effect on c-Met kinase activity at molecular level (ELISA);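 also: recombinant c-Met kinase domain with 5 µM ATP, 1 h at 37 °C, substrate phosphorylation detected by anti-phosphotyrosine PY99 ELISA at 490 nm versus DMSO negative control, ATP-free wells as blank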
Assay type: biochemical
Experimental: Experiment for Preliminarily Evaluating the Inhibitory Effect on the Activity of Receptor Tyrosine Kinase c-Met at Molecular Level
After discarding the liquid in the wells, the plate was washed with T-PBS (0.1% Tween-20 in PBS) in an amount of 200 μL/well three times, each for 5 minutes. The ELISA plate was dried in an oven at 37° C. for 1-2 hours. 50 μl of adenosine triphosphate (ATP) solution diluted with reaction buffer (50 mM 4-hydroxyethylpiperazine ethanesulfonic acid (HEPES) pH 7.4, 50 mM MgCl2, 0.5 mM MnCl2, 0.2 mM Na3VO4, 1 mM dithiothreitol (DTT)) to a final concentration of 5 μM was added to each well. The compounds were diluted to an appropriate concentration with DMSO (1 μL/well) or a solution containing DMSO in a corresponding concentration (negative control well), and then c-Met kinase domain recombinant protein diluted with 49 μL of the reaction buffer was added therein to initiate the reaction, with two ATP-free control wells for each test. The plate was placed in a shaker (100 rpm) at 37° C. for reacting 1 hour, and washed with T-PBS three times. Primary antibody PY99 diluent was added in an amount of 100 μL/well to allow the reaction in a shaker at 37° C. for 0.5 hour, and then the plate was washed with T-PBS three times. Then the secondary antibody horseradish peroxidase labeled goat anti-mouse IgG diluent was added in an amount of 100 μL/well, and the plate was placed in a shaker at 37° C. for reacting 0.5 hour, and then washed with T-PBS three times. 2 mg/ml of o-phenylenediamine (OPD) coloring solution (diluted with 0.1 M citric acid-sodium citrate buffer (pH=5.4) containing 0.03% H2O2) was then added at 100 μL/well and reacted at 25° C. for 1-10 min with light blocked (ultrasound was required to dissolve OPD, the coloring solution was prepared when needed). The reaction was stopped by adding 2 M of H2SO4 in an amount of 50 μL/well, and a wavelength-adjustable microplate reader SPECTRA MAX 190 was read at 490 nm.
The inhibition rate of the sample was calculated by the following equation:

T1 sequence (P08581 1078-1345 limits assumed): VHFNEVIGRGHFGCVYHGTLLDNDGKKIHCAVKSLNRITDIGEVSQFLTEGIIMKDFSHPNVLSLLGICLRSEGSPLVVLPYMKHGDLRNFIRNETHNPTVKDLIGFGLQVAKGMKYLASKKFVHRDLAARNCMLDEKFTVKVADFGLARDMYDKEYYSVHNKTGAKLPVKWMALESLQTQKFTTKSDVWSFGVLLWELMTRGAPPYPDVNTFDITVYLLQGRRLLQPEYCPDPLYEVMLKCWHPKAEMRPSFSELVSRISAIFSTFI

Row | IC50 | Compound
1 | 10 to 100 nM | C[C@@H]1COCCN1CCOc1cc2nccc(Oc3ccc(NC(=O)C4(C(=O)Nc5ccc(F)cc5)CC4)cc3F)c2cn1 [Compound 30S, (R)-N-(3-fluoro-4-((7-(2-(3-methylmorpholino)ethoxy)-naphthyridin-4-yl)oxy)phenyl)-N-(4-fluorophenyl) cyclopropyl-1,1-dicarboxamide]
2 | 10 to 100 nM | O=C(Nc1ccc(F)cc1)C1(C(=O)Nc2ccc(Oc3ccnc4cc(OCCn5ccnc5)ncc34)c(F)c2)CC1 [Compound 31S, N-(4-((7-(2-(1H-imidazol-1-yl)ethoxy)-naphthyridin-4-yl)oxy)-3-fluorophenyl)-N-(4-fluorophenyl)cyclopropyl-1,1-dicarboxamide]
3 | 10 to 100 nM | O=C(Nc1ccc(F)cc1)C1(C(=O)Nc2ccc(Oc3ccnc4cc(N5CCN(Cc6ccccc6)CC5)ncc34)c(F)c2)CC1 [Compound 32S, N-(4-((7-(4-benzylpiperazin-1-yl)-naphthyridin-4-yl)oxy)-3-fluorophenyl)-N-(4-fluorophenyl)cyclopropyl-1,1-dicarboxamide]
4 | 100 to 1000 nM | O=C(Nc1ccc(F)cc1)C1(C(=O)Nc2ccc(Oc3ccnc4[nH]c(=O)cnc34)c(F)c2)CC1 [Compound 33S, N-(3-fluoro-4-((3-oxo-3,4-dihydropyrido [2,3-b]pyrazin-8-yl)oxy)phenyl)-N-(4-fluorophenyl)cyclopropyl-1,1-dicarboxamide]
5 | 10 to 100 nM | CCN1CCC(Nc2cc3nccc(Oc4ccc(NC(=O)c5ccnn(-c6ccc(F)cc6)c5=O)cc4F)c3cn2)C(F)C1 (stereo not drawn) [Compound 35S, N-(4-((7-((1-ethyl-3-fluoropiperidin-4-yl)amino)-1,6-naphthyridin-4-yl)oxy)-3-fluorophenyl)-2-(4-fluorophenyl)-3-oxo-2,3-dihydropyridazine-4-carboxamide]
6 | 10 to 100 nM | O=C(Nc1ccc(F)cc1)C1(C(=O)Nc2ccc(Oc3ccnc4cc(-c5ccc([N+](=O)[O-])cc5)ncc34)c(F)c2)CC1 [Compound 48S, N-(3-fluoro-4-((7-(4-nitrophenyl)-1,6-naphthyridin-4-yl)oxy)phenyl)-N-(4-fluorophenyl)cyclopropyl-1,1-dicarboxamide]
7 | 1 to 10 nM | O=C(Nc1ccc(F)cc1)C1(C(=O)Nc2ccc(Oc3ccnc4cc(-c5cnoc5)ncc34)c(F)c2)CC1 [Compound 51S]

The remaining lines, values behind:

Row | Compound | IC50
8 | C[C@H]1COCCN1CCOc1cc2nccc(Oc3ccc(NC(=O)C4(C(=O)Nc5ccc(F)cc5)CC4)cc3F)c2cn1 [Compound 29S, (S)-N-(3-fluoro-4-((7-(2-(3-methylmorpholino)ethoxy)-naphthyridin-4-yl)oxy)phenyl)-N-(4-fluorophenyl) cyclopropyl-1,1-dicarboxamide] | 10 to 100 nM
9 | O=C(Nc1ccc(F)cc1)C1(C(=O)Nc2ccc(Oc3ccnc4ncc(=O)[nH]c34)c(F)c2)CC1 [Compound 34S, N-(3-fluoro-4-((2-oxo-1,2-dihydropyrido [2,3-b]pyrazin-8-yl)oxy)phenyl)-N-(4-fluorophenyl)cyclopropyl-1,1-dicarboxamide] | 100 to 1000 nM
10 | O=C(COc1cc2nccc(Oc3ccc(NC(=O)C4(C(=O)Nc5ccc(F)cc5)CC4)cc3F)c2cn1)N1CCOCC1 [Compound 36S, N-(3-fluoro-4-((7-(2-morpholino-2-acetoxy)-1,6-naphthyridin-4-yl)oxy)phenyl)-N-(4-fluorophenyl)cyclopropyl-1,1-dicarboxamide] | 10 to 100 nM
11 | O=C(Nc1ccc(F)cc1)C1(C(=O)Nc2ccc(Oc3ccnc4cc(-c5ccc(N6CCOCC6)cc5)ncc34)c(F)c2)CC1 [Compound 50S, N-(3-fluoro-4-((7-(4-morpholinophenyl)-1,6-naphthyridin-4-yl)oxy)phenyl)-N-(4-fluorophenyl)cyclopropyl-1,1-dicarboxamide] | 10 to 100 nM
12 | O=C(Nc1ccc(F)cc1)C1(C(=O)Nc2ccc(Oc3ccnc4cc(-c5ccsn5)ncc34)c(F)c2)CC1 [Compound 52S] | 100 to 1000 nM
